Target: T1, CbMip (Coxiella burnetii, UniProt P51752)
T1 construct: gene mip
Experiment: biochemical

T1 sequence (P51752 22-230 limits assumed): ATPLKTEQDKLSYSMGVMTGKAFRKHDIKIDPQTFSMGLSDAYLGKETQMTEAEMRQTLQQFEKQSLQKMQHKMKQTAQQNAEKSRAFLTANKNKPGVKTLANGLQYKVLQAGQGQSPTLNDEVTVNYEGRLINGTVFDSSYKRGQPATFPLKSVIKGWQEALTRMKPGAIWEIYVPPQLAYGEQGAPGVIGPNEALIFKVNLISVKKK

SMILES | Ki [µM]
O=C(O[C@@H](Cc1ccccc1)C(=O)NCc1cccnc1)C1CCCCN1S(=O)(=O)Cc1ccccc1 (some centres unmarked) [ANCH37] | 4.6 ± 0.9
O=C(NCCOC(=O)[C@@H]1CCCCN1S(=O)(=O)Cc1ccccc1)c1cccnc1 [SF235] | 18 ± 4

Reference: paper PMC10348545 (PLOS Pathogens, 2023)
